The source of these data is patent publication US6835401B2, “Method of treating diseases caused by over-production of free-radicals” (Pharmaton SA, priority 2000, dated 2004).

For this assay, the system named is glutathione peroxidase (GSH-PX). Kind of assay: Glutathione peroxidase (GSH-PX) activity in keratinocytes. The following applies: 50 nM Se (sodium selenite 50 nM; selenium yeast 3.95 μg/ml), control cells. Format: cell-based, human. How it is done:
Cultures were maintained at 37° C. in a humidified 5% CO2 atmosphere.

For the compound `O=[Se](O)O` [sodium selenite], the GSH-PX activity was determined as 91.44±10.37 mU/mg protein. In addition, the “induction of GSH-PX activity, fold increase vs controls” value (48 h) is 3.365 fold.
